In the assay the test system is B6C3F1 mice, ip Sarcoma M5076, median survival T/C. The assay can be described thus: NCI In Vivo Anticancer Drug Screen. Data for tumor model Sarcoma M5076 (intraperitoneal) in B6C3F1 mice. Conditions: endpoint: median survival time, higher = longer survival. As to the method: The antitumor activity of compounds was measured in mice bearing transplantable tumors. Survival or tumor size were measured and the results are expressed as the measurement made in the treated group (T) divided by the measurement made in the vehicle treated control group (C). The tumor model used in this assay is Sarcoma M5076 (intraperitoneal) in B6C3F1 mice

The mark [1] stands for this setting: dose: 12.5 mg/kg/injection, schedule: Q04DX004 (ip), vehicle: Klucel (hydroxypropylcellulose) (HPC).
Setting [2] is: dose: 25.0 mg/kg/injection, schedule: Q04DX004 (ip), vehicle: Klucel (hydroxypropylcellulose) (HPC).
The mark [3] stands for this setting: dose: 50.0 mg/kg/injection, schedule: Q04DX004 (ip), vehicle: Klucel (hydroxypropylcellulose) (HPC).
[4] abbreviates: dose: 100.0 mg/kg/injection, schedule: Q04DX004 (ip), vehicle: Klucel (hydroxypropylcellulose) (HPC).
The mark [5] stands for this setting: dose: 200.0 mg/kg/injection, schedule: Q04DX004 (ip), vehicle: Klucel (hydroxypropylcellulose) (HPC).
The mark [6] stands for this setting: dose: 12.5 mg/kg/injection, schedule: Q04DX004 (ip), vehicle: saline with Tween-80.
Setting [7] is: dose: 25.0 mg/kg/injection, schedule: Q04DX004 (ip), vehicle: saline with Tween-80.
Setting [8] is: dose: 50.0 mg/kg/injection, schedule: Q04DX004 (ip), vehicle: saline with Tween-80.
[9] abbreviates: dose: 100.0 mg/kg/injection, schedule: Q04DX004 (ip), vehicle: saline.
The mark [10] stands for this setting: dose: 200.0 mg/kg/injection, schedule: Q04DX004 (ip), vehicle: saline.

The structures appear in SMILES notation. Where “and” joins values, the source holds several entries; their conditions need not be identical. Equal values may be shown once. Toxic doses and inconclusive results are not listed.

With `O=C(O)C(O)C(O)C1[O][Sb][O]C1C(=O)O` (configuration not stated), the T/C reads like this: (dose: 9.37 mg/kg/injection, schedule: Q04DX004 (ip), vehicle: saline) 100 % of control; (dose: 9.38 mg/kg/injection, schedule: Q04DX004 (ip), vehicle: saline) 107 % of control; (dose: 18.75 mg/kg/injection, schedule: Q04DX004 (ip), vehicle: saline) 99 % of control and 110 % of control; (dose: 37.5 mg/kg/injection, schedule: Q04DX004 (ip), vehicle: saline) 110 % of control and 114 % of control; (dose: 75.0 mg/kg/injection, schedule: Q04DX004 (ip), vehicle: saline) 99 % of control and 111 % of control.

Regarding `O=C(O)[C@H](Cc1ccccc1)N1C(=O)c2ccccc2C1=O`, the T/C is 92 % of control (dose: 62.5 mg/kg/injection, schedule: Q04DX004 (ip), vehicle: DMSO); 110 % of control (dose: 125.0 mg/kg/injection, schedule: Q04DX004 (ip), vehicle: DMSO); 100 % of control (dose: 250.0 mg/kg/injection, schedule: Q04DX004 (ip), vehicle: DMSO).

For the compound `CC[C@@H](C)[C@@H]1NC(=O)C(NC(=O)C(CC(C)C)N(C)C(=O)C2CCCN2C(=O)C(C)O)C(C)OC(=O)C(Cc2ccc(OC)cc2)N(C)C(=O)C2CCCN2C(=O)C(CC(C)C)NC(=O)C(C)C(=O)C(C(C)C)OC(=O)C[C@H]1O` (some centres not stated), the T/C was 120 % of control (dose: 0.13 mg/kg/injection, schedule: Q04DX004 (ip), vehicle: distilled water + alcohol); 171 % of control (dose: 0.36 mg/kg/injection, schedule: Q04DX004 (ip), vehicle: distilled water + alcohol); 209 % of control (dose: 0.6 mg/kg/injection, schedule: Q04DX004 (ip), vehicle: distilled water + alcohol); 117 % of control (dose: 45.0 micrograms/kg/injection, schedule: Q04DX004 (ip), vehicle: distilled water + alcohol); 115 % of control (dose: 90.0 micrograms/kg/injection, schedule: Q04DX004 (ip), vehicle: distilled water + alcohol).

For the compound `O=C(CSc1nnc(-c2ccc(Cl)cc2)s1)Nc1nccs1`, the T/C (dose: 5.0 mg/kg/injection, schedule: Q04DX004 (ip), vehicle: saline with Tween-80) was 101 % of control; the T/C (dose: 10.0 mg/kg/injection, schedule: Q04DX004 (ip), vehicle: saline with Tween-80) is 95 % of control; the T/C (dose: 20.0 mg/kg/injection, schedule: Q04DX004 (ip), vehicle: saline with Tween-80) was 93 % of control; the T/C (dose: 37.5 mg/kg/injection, schedule: Q04DX004 (ip), vehicle: saline with Tween-80) is 90 % of control; the T/C (dose: 40.0 mg/kg/injection, schedule: Q04DX004 (ip), vehicle: saline with Tween-80) was 88 % of control; the T/C (dose: 80.0 mg/kg/injection, schedule: Q04DX004 (ip), vehicle: saline with Tween-80) is 88 % of control.

Consider `O=[N+]([O-])c1ccc([I+]c2ccccc2)cc1`, for which the T/C is, setting by setting: (dose: 6.25 mg/kg/injection, schedule: Q04DX004 (ip), vehicle: Klucel (hydroxypropylcellulose) (HPC)) 95 % of control; under setting [1], 109 % of control; under setting [2], 99 % of control; under setting [3], 106 % of control.

With `O=c1nc2[nH]c3c4cccc5cccc(c3nc2c(=O)[nH]1)c54`, the T/C was 103 % of control under setting [1]; 99 % of control under setting [2]; 98 % of control under setting [3]; 94 % of control under setting [4]; 103 % of control under setting [5].

In the case of `O=C1C2CC3CC1CC(Cl)(C3)C2`, the T/C is 105 % of control under setting [6], 99 % of control under setting [7] and 94 % of control under setting [8].

Regarding `CC(=O)C1C(=O)C(=O)N(c2ccc(Cl)cc2)C1=O` (configuration not stated), the T/C is, setting by setting: under setting [3], 111 % of control; under setting [4], 103 % of control; under setting [5], 99 % of control; (dose: 400.0 mg/kg/injection, schedule: Q04DX004 (ip), vehicle: Klucel (hydroxypropylcellulose) (HPC)) 93 % of control; (dose: 800.0 mg/kg/injection, schedule: Q04DX004 (ip), vehicle: Klucel (hydroxypropylcellulose) (HPC)) 92 % of control.

Consider `O=C1C=CC(O)N1` (configuration not stated), for which the T/C by setting is: (dose: 10.0 mg/kg/injection, schedule: Q01DX009 (ip), vehicle: water) 95 % of control; (dose: 20.0 mg/kg/injection, schedule: Q01DX009 (ip), vehicle: water) 101 % of control; (dose: 40.0 mg/kg/injection, schedule: Q01DX009 (ip), vehicle: water) 101 % of control; (dose: 80.0 mg/kg/injection, schedule: Q01DX009 (ip), vehicle: water) 101 % of control; (dose: 160.0 mg/kg/injection, schedule: Q01DX009 (ip), vehicle: water) 94 % of control.

Take `Cn1nnc2c(C(N)=O)ncn2c1=O`: the T/C is 156 % of control under setting [9] and 170 % of control under setting [10].

Consider `CC(=O)OCc1cc(-c2nc3ccccc3[nH]c2=O)nn1-c1ccc(Cl)cc1`, for which the T/C by setting is: (dose: 6.25 mg/kg/injection, schedule: Q04DX004 (ip), vehicle: distilled water + alcohol) 95 % of control; (dose: 12.5 mg/kg/injection, schedule: Q04DX004 (ip), vehicle: distilled water + alcohol) 91 % of control; (dose: 25.0 mg/kg/injection, schedule: Q04DX004 (ip), vehicle: distilled water + alcohol) 88 % of control and 91 % of control; (dose: 200.0 mg/kg/injection, schedule: Q04DX004 (ip), vehicle: distilled water + alcohol) 97 % of control.

For `COC(=O)Nc1cccc(-c2nc3ccc(NC(=O)OC)cc3c(=O)n2-c2ccccc2)c1`, the T/C (dose: 133.0 mg/kg/injection, schedule: Q04DX004 (ip), vehicle: Klucel (hydroxypropylcellulose) (HPC)) was 167 % of control.

Turning to `CN1C(=O)C(=O)N(Cc2ccco2)C1=O`, the T/C is, setting by setting: (dose: 31.25 mg/kg/injection, schedule: Q04DX004 (ip), vehicle: Klucel (hydroxypropylcellulose) (HPC)) 106 % of control; (dose: 62.5 mg/kg/injection, schedule: Q04DX004 (ip), vehicle: Klucel (hydroxypropylcellulose) (HPC)) 106 % of control; (dose: 125.0 mg/kg/injection, schedule: Q04DX004 (ip), vehicle: Klucel (hydroxypropylcellulose) (HPC)) 99 % of control; (dose: 250.0 mg/kg/injection, schedule: Q04DX004 (ip), vehicle: Klucel (hydroxypropylcellulose) (HPC)) 97 % of control; (dose: 500.0 mg/kg/injection, schedule: Q04DX004 (ip), vehicle: Klucel (hydroxypropylcellulose) (HPC)) 100 % of control.

Turning to `N[C@@H](C[C@H]1CCC(=O)[C@@H]2O[C@H]12)C(=O)O`, the T/C was 97 % of control (dose: 50.0 mg/kg/injection, schedule: Q04DX004 (ip), vehicle: saline); 106 % of control under setting [9]; 117 % of control under setting [10]; 115 % of control (dose: 400.0 mg/kg/injection, schedule: Q04DX004 (ip), vehicle: saline).

In the case of `Nc1nc(C=O)nc2c1ncn2C1OC(CO)C(O)C1O` (configuration not stated), the T/C (dose: 12.5 mg/kg/injection, schedule: Q04DX004 (ip), vehicle: water) is 104 % of control; the T/C (dose: 25.0 mg/kg/injection, schedule: Q04DX004 (ip), vehicle: water) was 104 % of control; the T/C (dose: 50.0 mg/kg/injection, schedule: Q04DX004 (ip), vehicle: water) was 106 % of control; the T/C (dose: 100.0 mg/kg/injection, schedule: Q04DX004 (ip), vehicle: water) is 109 % of control; the T/C (dose: 200.0 mg/kg/injection, schedule: Q04DX004 (ip), vehicle: water) was 123 % of control.

For the compound `CCOC(=O)/N=[N+](\[O-])c1ccccc1`, the T/C reads like this: (dose: 3.13 mg/kg/injection, schedule: Q04DX004 (ip), vehicle: saline with Tween-80) 105 % of control; (dose: 6.25 mg/kg/injection, schedule: Q04DX004 (ip), vehicle: saline with Tween-80) 97 % of control; under setting [6], 104 % of control; under setting [7], 97 % of control; under setting [8], 101 % of control.

(Values after PubChem BioAssay AID292 (DTP/NCI, 2004).)
